For test [1], the target named is Elongation factor Tu, mitochondrial (Homo sapiens, UniProt P49411).
Test [2] deals with Rho-associated protein kinase 2 (Homo sapiens, UniProt O75116).
A further test addresses Deoxycytidine kinase (Homo sapiens, UniProt P27707).
Test [3] has as its target T1, Serine/threonine-protein kinase PLK4 (Homo sapiens, UniProt O00444).
T1 sequence (O00444 whole entry): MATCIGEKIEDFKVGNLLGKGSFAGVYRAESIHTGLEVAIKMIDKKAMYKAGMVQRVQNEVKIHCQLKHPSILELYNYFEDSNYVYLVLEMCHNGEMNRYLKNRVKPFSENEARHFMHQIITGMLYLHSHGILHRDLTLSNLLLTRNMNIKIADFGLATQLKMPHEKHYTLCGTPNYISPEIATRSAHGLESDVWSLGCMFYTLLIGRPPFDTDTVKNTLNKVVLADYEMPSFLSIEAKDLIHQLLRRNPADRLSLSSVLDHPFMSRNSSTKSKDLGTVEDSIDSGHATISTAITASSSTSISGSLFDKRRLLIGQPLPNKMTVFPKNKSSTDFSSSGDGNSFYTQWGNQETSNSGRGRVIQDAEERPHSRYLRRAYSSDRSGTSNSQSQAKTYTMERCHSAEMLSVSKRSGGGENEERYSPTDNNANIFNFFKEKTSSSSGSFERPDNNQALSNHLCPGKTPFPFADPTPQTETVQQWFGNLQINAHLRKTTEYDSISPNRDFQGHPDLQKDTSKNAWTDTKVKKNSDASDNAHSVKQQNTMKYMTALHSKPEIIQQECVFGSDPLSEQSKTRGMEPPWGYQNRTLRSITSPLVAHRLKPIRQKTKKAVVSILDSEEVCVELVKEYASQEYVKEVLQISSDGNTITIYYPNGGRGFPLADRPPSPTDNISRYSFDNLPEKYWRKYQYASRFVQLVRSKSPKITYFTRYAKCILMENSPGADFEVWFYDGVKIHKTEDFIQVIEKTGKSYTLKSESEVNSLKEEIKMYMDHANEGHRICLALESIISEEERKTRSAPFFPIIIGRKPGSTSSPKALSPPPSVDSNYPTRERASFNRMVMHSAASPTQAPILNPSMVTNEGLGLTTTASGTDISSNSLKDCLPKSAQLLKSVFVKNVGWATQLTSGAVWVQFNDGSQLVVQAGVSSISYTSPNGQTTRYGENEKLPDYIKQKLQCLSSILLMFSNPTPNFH

Test [4] concerns the target T2, Signal recognition particle receptor subunit alpha (Homo sapiens, UniProt P08240).
T2 sequence (P08240 whole entry): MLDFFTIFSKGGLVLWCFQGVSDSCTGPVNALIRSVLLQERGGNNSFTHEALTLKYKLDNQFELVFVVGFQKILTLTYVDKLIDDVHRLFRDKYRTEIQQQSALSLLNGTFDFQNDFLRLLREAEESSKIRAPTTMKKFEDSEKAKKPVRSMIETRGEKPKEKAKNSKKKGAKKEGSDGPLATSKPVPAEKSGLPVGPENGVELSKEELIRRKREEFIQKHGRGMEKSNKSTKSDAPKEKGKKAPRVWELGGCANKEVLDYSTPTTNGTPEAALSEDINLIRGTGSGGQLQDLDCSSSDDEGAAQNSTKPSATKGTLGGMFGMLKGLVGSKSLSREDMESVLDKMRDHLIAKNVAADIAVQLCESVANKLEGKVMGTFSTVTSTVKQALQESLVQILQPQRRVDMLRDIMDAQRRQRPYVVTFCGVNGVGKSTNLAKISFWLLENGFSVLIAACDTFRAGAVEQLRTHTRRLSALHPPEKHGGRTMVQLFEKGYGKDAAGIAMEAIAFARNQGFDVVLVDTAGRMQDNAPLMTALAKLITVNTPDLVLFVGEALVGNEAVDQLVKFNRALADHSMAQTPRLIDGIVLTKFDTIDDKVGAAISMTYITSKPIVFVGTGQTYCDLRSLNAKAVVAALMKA

The target in test [5] is T3, NUAK family SNF1-like kinase 2 (Homo sapiens, UniProt Q9H093).
T3 sequence (Q9H093 whole entry): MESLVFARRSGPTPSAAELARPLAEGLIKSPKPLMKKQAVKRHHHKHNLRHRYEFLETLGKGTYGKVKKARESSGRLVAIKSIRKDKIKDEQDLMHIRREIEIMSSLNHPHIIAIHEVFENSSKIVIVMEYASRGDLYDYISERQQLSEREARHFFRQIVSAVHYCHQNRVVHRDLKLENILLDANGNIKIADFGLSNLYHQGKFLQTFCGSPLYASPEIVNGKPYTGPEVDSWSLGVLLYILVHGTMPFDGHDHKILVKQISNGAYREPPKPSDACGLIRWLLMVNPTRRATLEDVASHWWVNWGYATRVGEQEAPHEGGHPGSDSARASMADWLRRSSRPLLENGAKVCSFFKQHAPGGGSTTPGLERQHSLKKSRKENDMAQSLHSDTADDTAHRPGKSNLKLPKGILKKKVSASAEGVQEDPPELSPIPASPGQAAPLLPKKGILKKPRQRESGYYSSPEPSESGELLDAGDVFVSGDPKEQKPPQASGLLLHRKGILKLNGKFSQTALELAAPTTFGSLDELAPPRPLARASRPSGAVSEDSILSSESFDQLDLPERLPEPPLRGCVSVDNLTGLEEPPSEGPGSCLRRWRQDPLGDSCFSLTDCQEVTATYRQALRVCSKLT

The target of test [6] is T4, Ribosyldihydronicotinamide dehydrogenase [quinone] (Homo sapiens, UniProt P16083).
T4 sequence (P16083 whole entry): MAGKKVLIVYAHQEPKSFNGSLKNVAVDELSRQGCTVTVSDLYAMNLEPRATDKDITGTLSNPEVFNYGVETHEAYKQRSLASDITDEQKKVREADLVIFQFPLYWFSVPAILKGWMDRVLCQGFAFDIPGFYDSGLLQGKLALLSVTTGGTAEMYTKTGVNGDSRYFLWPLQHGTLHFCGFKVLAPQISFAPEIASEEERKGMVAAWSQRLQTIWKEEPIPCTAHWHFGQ

Active and inactive are the calls of the source.

The Kd is the constant that tells how readily two partners part at equilibrium.
Further: in the data inactive means no Kd found up to 30 µM.

Deoxycytidine kinase, sequence (P27707 whole entry): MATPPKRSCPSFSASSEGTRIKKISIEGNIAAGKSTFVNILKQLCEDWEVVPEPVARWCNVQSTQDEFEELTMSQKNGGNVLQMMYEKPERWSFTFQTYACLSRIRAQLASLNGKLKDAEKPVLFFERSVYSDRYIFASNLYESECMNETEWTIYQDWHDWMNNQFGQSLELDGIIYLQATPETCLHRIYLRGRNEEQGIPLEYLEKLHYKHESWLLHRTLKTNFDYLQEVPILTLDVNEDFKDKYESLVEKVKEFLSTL
Rho-associated protein kinase 2, sequence (O75116 whole entry): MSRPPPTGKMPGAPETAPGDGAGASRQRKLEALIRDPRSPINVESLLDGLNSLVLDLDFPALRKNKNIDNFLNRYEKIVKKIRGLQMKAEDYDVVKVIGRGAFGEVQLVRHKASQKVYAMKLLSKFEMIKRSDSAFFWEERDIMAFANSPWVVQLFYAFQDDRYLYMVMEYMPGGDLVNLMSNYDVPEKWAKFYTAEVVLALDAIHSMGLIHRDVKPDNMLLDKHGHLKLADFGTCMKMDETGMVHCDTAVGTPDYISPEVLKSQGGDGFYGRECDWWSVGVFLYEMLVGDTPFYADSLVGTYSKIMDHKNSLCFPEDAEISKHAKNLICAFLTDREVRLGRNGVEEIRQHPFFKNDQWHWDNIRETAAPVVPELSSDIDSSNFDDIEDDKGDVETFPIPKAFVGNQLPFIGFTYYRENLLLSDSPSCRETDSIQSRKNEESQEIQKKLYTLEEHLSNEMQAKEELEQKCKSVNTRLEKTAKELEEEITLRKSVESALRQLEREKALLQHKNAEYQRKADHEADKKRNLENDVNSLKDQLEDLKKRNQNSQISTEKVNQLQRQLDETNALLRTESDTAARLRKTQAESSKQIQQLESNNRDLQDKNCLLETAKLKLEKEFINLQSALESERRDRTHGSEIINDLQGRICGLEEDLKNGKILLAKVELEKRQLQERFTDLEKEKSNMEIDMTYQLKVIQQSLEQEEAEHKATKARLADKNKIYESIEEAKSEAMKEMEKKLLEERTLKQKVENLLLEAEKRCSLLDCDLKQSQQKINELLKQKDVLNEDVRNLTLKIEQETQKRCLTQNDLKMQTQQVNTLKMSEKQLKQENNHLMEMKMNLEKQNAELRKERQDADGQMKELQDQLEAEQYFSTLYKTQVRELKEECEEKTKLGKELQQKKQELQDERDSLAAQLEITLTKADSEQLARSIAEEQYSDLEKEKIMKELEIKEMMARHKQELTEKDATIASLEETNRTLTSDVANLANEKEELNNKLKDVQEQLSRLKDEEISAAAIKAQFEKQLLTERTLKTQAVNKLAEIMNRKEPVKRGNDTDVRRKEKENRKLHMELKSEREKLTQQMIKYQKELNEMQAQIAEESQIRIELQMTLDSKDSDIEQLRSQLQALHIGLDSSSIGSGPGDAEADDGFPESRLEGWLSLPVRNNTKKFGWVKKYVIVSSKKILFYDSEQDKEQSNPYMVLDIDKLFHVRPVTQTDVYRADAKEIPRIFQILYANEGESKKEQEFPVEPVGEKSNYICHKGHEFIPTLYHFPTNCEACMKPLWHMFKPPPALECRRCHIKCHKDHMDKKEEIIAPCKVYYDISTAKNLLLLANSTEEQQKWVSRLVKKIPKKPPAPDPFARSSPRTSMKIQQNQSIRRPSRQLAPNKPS

On to `CN1CCC(COc2cnc(-c3cccc(Cn4nc(-c5cccc(C#N)c5)ccc4=O)c3)nc2)CC1` [TEPOTINIB], for which the Kd (in test [1]; in test [2]; on Deoxycytidine kinase; in test [3]; in test [4]; in test [5]) was > 30 µM (inactive) in each case. Also, in test [6], the Kd was 0.875 µM (active).

As to `CCn1c(=O)c(-c2cc[nH]n2)cc2c(C)nc(N)nc21` [VOXTALISIB], the Kd (in test [1]; in test [2]; on Deoxycytidine kinase; in test [3]; in test [4]; in test [5]) was > 30 µM (inactive) throughout. The Kd in test [6] is > 30 µM (inactive).

Turning to `Cn1cc(-c2ccc(F)c(C(F)(F)F)c2)nc1C1CCN(c2ncnc3[nH]ncc23)CC1` [LY-2584702], the Kd (in test [1]; in test [2]; at Deoxycytidine kinase; in test [3]; in test [4]; in test [5]) was > 30 µM (inactive) throughout. Also, in test [6], the Kd is > 30 µM (inactive).

For `Cc1cc2c(F)c(Oc3ncnn4cc(OC[C@@H](C)OC(=O)[C@H](C)N)c(C)c34)ccc2[nH]1` [BRIVANIB ALANINATE], the Kd is > 30 µM (inactive) in test [1]; > 30 µM (inactive) in test [2]; > 30 µM (inactive) on Deoxycytidine kinase; > 30 µM (inactive) in test [3]; > 30 µM (inactive) in test [4]; 0.003 µM in test [5]. In test [6], the Kd was > 30 µM (inactive).

Take `CNC(=O)c1cc(Oc2ccc(NC(=O)Nc3ccc(Cl)c(C(F)(F)F)c3)c(F)c2)ccn1` [REGORAFENIB]: the Kd (in test [1]; in test [2]; on Deoxycytidine kinase; in test [3]; in test [4]; in test [5]) was > 30 µM (inactive) in each case. Moreover, the Kd in test [6] was > 30 µM (inactive).

In the case of `COC(=O)N[C@@H](C)CNc1nccc(-c2cn(C(C)C)nc2-c2cc(Cl)cc(NS(C)(=O)=O)c2F)n1` [ENCORAFENIB], the Kd (in test [1]; in test [2]; on Deoxycytidine kinase; in test [3]; in test [4]; in test [5]) was > 30 µM (inactive) throughout. Further, the Kd in test [6] was > 30 µM (inactive).

`Cc1c(F)cc(C(=O)NC2CC2)cc1-c1ccc(C(=O)NCC(C)(C)C)cn1` [LOSMAPIMOD]: the Kd (in test [1]; in test [2]; at Deoxycytidine kinase; in test [3]; in test [4]; in test [5]) was > 30 µM (inactive) in each case. Besides, the Kd in test [6] is > 30 µM (inactive).

`Cc1cc(-c2cc(O)ccc2Cl)cc2nnc(Nc3ccc(OCCN4CCCC4)cc3)nc12`: the Kd (in test [1]; in test [2]; at Deoxycytidine kinase; in test [3]; in test [4]; in test [5]) was > 30 µM (inactive) throughout. In addition, the Kd in test [6] was > 30 µM (inactive).

Regarding `C=CC(=O)N1CCC(Oc2cc3c(Nc4ccc(Cl)c(Cl)c4F)ncnc3cc2OC)CC1` [POZIOTINIB], the Kd (in test [1]; in test [2]; at Deoxycytidine kinase; in test [3]; in test [4]; in test [5]) was > 30 µM (inactive) each time. For the same molecule, the Kd in test [6] was > 30 µM (inactive).

For the molecule `O=C1NC(=O)/C(=C/c2ccc3nccc(-c4ccncc4)c3c2)S1` [GSK-1059615], the Kd (in test [1]; in test [2]; on Deoxycytidine kinase; in test [3]; in test [4]; in test [5]) was > 30 µM (inactive) throughout. The Kd in test [6] was > 30 µM (inactive).

In the case of `CC[C@@H]1C(=O)N(C)c2cnc(Nc3ccc(C(=O)N[C@H]4CC[C@H](N5CCN(CC6CC6)CC5)CC4)cc3OC)nc2N1C(C)C` [VOLASERTIB], the Kd (in test [1]; in test [2]; on Deoxycytidine kinase; in test [3]; in test [4]; in test [5]) was > 30 µM (inactive) throughout. The Kd in test [6] is > 30 µM (inactive).

Turning to `O=c1sn(-c2cccc3ccccc23)c(=O)n1Cc1ccccc1` [TIDEGLUSIB], the Kd (in test [1]; in test [2]; on Deoxycytidine kinase; in test [3]; in test [4]; in test [5]) was > 30 µM (inactive) in each case. For the same molecule, the Kd in test [6] was > 30 µM (inactive).

As to `CO[C@H]1C[C@@H]2CC[C@@H](C)[C@@](O)(O2)C(=O)C(=O)N2CCCC[C@H]2C(=O)O[C@H]([C@H](C)C[C@@H]2CC[C@@H](OCCO)[C@H](OC)C2)CC(=O)[C@H](C)/C=C(\C)[C@@H](O)[C@@H](OC)C(=O)[C@H](C)C[C@H](C)/C=C/C=C/C=C/1C` [EVEROLIMUS], the Kd (in test [1]; in test [2]; at Deoxycytidine kinase; in test [3]; in test [4]; in test [5]) was > 30 µM (inactive) throughout. Moreover, the Kd in test [6] was > 30 µM (inactive).

For the molecule `CN(C)C(=O)c1cc2cnc(Nc3ccc(N4CCNCC4)cn3)nc2n1C1CCCC1` [RIBOCICLIB], the Kd (in test [1]; in test [2]; on Deoxycytidine kinase; in test [3]; in test [4]; in test [5]) was > 30 µM (inactive) in each case. Also, the Kd in test [6] was > 30 µM (inactive).

The values above are taken from ChEMBL document CHEMBL3991601, “The target landscape of clinical kinase drugs” (Science, 2017).
